{"source": "patent US20250204515A1", "about": "“Heparanase Inhibition for Graft Protection” (University of Pittsburgh - Of the Commonwealth System of …, priority 2022, published 2025)", "key": {"[1]": {"tested_on": "HPSE1, MMP2, IL-6, IL-1β, TNF-α mRNA; IκB-α", "assay": "Real-time RT-PCR and western blotting in rat lung tissue after 4 hours of EVLP", "procedure": "(§1) Graft tissues collected after 4 hours of EVLP and 2 hours after reperfusion were examined for relative mRNA expression levels of interleukin (IL)-6, IL-1, tumor necrosis factor (TNF)-α, and glyceraldehyde-3-phosphate dehydrogenase (GAPDH). Gene expression levels were normalized to GAPDH mRNA levels.\nWestern blotting: Total isolated proteins were extracted/resolved by 10% SDS-PAGE followed by transfer to 0.2 μm nitrocellulose membranes (Bio-Rad Laboratories, Hercules, CA, USA). Membranes were blocked with 5% non-fat milk at room temperature for 2 hours and then incubated overnight at 4° C. with the following primary antibodies: inhibitor of KB-α (IκB-α; #9242, Cell Signaling Technology, Inc., Danvers, MA) and β-actin (#A1978, Millipore-Sigma). Membranes were then incubated with either goat anti-mouse IgG (H+L) (#31430, Thermo Fisher Scientific Inc.; 1:5000) or goat anti-rabbit IgG (H+L) (#31460, Thermo Fisher Scientific Inc.; 1:3000) horseradish peroxidase-conjugated polyclonal secondary antibodies at room temperature for 2 hours. Proteins were visualized using an enhanced chemiluminescence kit (Abcam), and protein bands were imaged and analyzed using Image Lab software (Version 6.0; Bio-Rad Laboratories, Inc., Hercules, CA). The intensities of protein bands were quantitated by Image J software (National Institutes of Health, Bethesda, MD)."}, "rat lung grafts": {"tested_on": "rat lung grafts", "assay": "Rat orthotopic left lung transplantation following EVLP", "format": "in vivo", "conditions": "2 hours after transplant following 4 hours of EVLP", "procedure": "Rat orthotopic left lung transplantation following EVLP: Orthotopic, single-lung transplantation of the left lung was performed using the 3-cuff method. After EVLP for 4 hours, the lungs were cooled with 4° C. Perfadex on the EVLP system and stored at 4° C. for 1 hour prior to transplantation. The recipient animals were sacrificed 2 hours after reperfusion. When analyzing graft function, the native lung was clamped, 100% 02 was administered for 5 minutes through a ventilator, and the recipient's blood was sampled from the graft pulmonary vein for blood gas analysis.\nas §1\n(§2) Tissue staining and histopathological analysis: Formalin-fixed, paraffin-embedded lung tissues collected 2 hours after transplantation were sectioned to 4 μm thickness and stained with hematoxylin and eosin. In parallel, sections of tissue collected after 4 hours of EVLP were stained for immunofluorescence imaging using primary antibodies for syndecan-1 (DL-101) (#sc-12765, Santa Cruz) and caveolin-1 (#3238, Cell Signaling Technology, Danvers, MA) and with Hoechst 33342 dye (Thermo Scientific). Donkey Cy3-conjugated anti-mouse IgG (#AP192C, MilliporeSigma, Burlington, MA) and Cy5-conjugated goat anti-rabbit IgG (#A10523, Thermo Scientific) secondary antibodies were used to detect primary antibodies. Stained slides were scanned with a whole-slide image scanner (Axio Scan.Z1; Carl Zeiss AB, Oberkochen, Germany) and analyzed with digital image processing software (ZEN lite blue edition; Carl Zeiss)."}, "rat lungs": {"tested_on": "rat lungs", "assay": "Rat EVLP for 4 hours with HPSE inhibitors in the perfusate: physiology, endothelial barrier, edema", "conditions": "heparin 1000-U/hour or SF4 1 μM in perfusate", "experimental": "In the heparin group, 1000-U of heparin were initially added to the EVLP perfusate, then 1000-U of heparin were administered every hour during EVLP. […] Two control conditions were included in the experimental protocol: 1) sham controls (Sham) were lungs not placed on EVLP and 2) untreated controls (Control) were lungs placed on EVLP without HPSE inhibitor treatment. EVLP physiology, endothelial integrity, inflammation and glycocalyx preservation for EVLP lungs and post-transplant lung grafts were investigated across all treatment regimens.\nEx vivo lung perfusion in rats: EVLP was performed using a commercially-available rodent EVLP system (IL-2 Isolated Perfused Rat or Guinea Pig Lung System; Harvard apparatus, Holliston, MA). Acellular Steen solution was used for EVLP perfusate and medicated with methylprednisolone (Solu-Medrol®; Pfizer, Inc., New York, NY) and cephalosporin (Cefazolin; WG critical care LLC, Paramus, NJ) equally in all experimental groups. […] Pulmonary artery pressure, peak airway pressure, and airway flow were monitored continuously, and dynamic lung compliance (Cdyn) and pulmonary vascular resistance (PVR) were analyzed.\nEvaluation of endothellal barrier Integrity After 4 hours of EVLP, 60 mg of Evans blue dye (EBD, Millipore-Sigma, Burlington, MA) was administered into the perfusate to assess vascular endothelial permeability. After 30 minutes of perfusion, the lung vascular bed was rinsed with 20 ml of phosphate-buffered saline (PBS), and slices of lungs were incubated in formamide (Millipore Sigma) overnight at 60° C. Absorbance of the extractant was measured at 620 nm, and EBD was normalized to dry-tissue weight.\nWet-to-Dry (W/D) weight ratio: Lung tissues collected 2 hours after transplant were immediately weighed then placed in a 60° C. oven to dry for 72 hours. Tissues were weighed again after drying to determine the wet-to-dry lung weight ratio."}, "[2]": {"tested_on": "glycosaminoglycans (GAGs), syndecan-1", "assay": "Glycocalyx shedding in rat lungs during EVLP (GAGs, syndecan-1 ELISA, immunofluorescence)", "conditions": "after 4 hours EVLP; SF4 vs heparin-treated, heparin vs controls", "procedure": "Syndecan-1 ELISA: Syndecan-1 concentrations in EVLP perfusate were quantitated using ELISA (Immunotag™ Rat Syndecan-1 ELISA, G-Biosciences, Geno Technology, Inc., St. Louis, MO). ELISA was performed according to the manufacturer's instructions using perfusate samples acquired after 4 hours of EVLP.\nDetermination of glycosaminoglycans (GAGS): The concentration of GAGs in rat EVLP perfusate at 4 hours was quantitated using 1,9-dimethylmethylene blue (DMMB, Millipore Sigma). The DMMB solution (pH˜3.0) was prepared by dissolving 16 mg/I DMMB in distilled H2O containing 3.04 g/I glycine, 1.6 g/l NaCl and 95 ml 0.1 M acetic acid. Briefly, 1 ml DMMB solution was mixed with 100 μl EVLP perfusate then incubated for 18 h at room temperature. The tubes were then centrifuged at 14,000 rpm for 20 min at 4° C. Supernatants were carefully decanted, 100 μl dissolvent buffer (4 M guanidine hydrochloride, 50 mM sodium acetate, 10% propan-1-ol, pH 6.8) was added to each pellet, and the tubes were incubated at 40° C. and vortexed until GAG-DMMB pellets were completely dissolved. GAG content in each sample was measured spectrophotometrically at 656 nm.\nas §2"}, "HPSE": {"tested_on": "HPSE", "assay": "HPSE activity assay in rat lung tissue after 4 hours of EVLP", "conditions": "after 4-hours EVLP; heparin 1000-U/hour or SF4 1 μM in perfusate", "procedure": "HPSE activity assay. HPSE activity was measured via a β-glucuronidase activity assay using 4-methylumbelliferyl-β-D-glucuronide (4-MUG) substrate (Millipore-Sigma). Briefly, after 4 hours of EVLP, lung tissues were homogenized in cold PBS. […] Fluorescence (λex 360 nm/λem 460 nm) was continuously measured for 60 minutes using a fluorescence microplate reader (BioTech Synergy HTX, Agilent Technologies, Santa Clara, CA)."}}, "note": "“Also recorded” adds a separate entry of the source.", "data": [{"substance": "heparin", "values": [{"measurement": "IL-1β mRNA expression", "setting": "[1]; lung tissue after 4-hours EVLP", "value": "increased"}, {"measurement": "IL-6 mRNA expression", "setting": "[1]; lung tissue after 4-hours EVLP", "value": "increased"}, {"measurement": "TNF-α mRNA expression", "setting": "[1]; lung tissue after 4-hours EVLP", "value": "increased"}, {"measurement": "pro-MMP2 gene expression", "setting": "[1]; lung tissue after 4 hours of EVLP", "value": "further upregulated"}, {"measurement": "HPSE1 mRNA expression", "setting": "[1]; lung tissue after 4 hours of EVLP, vs sham", "value": "not altered"}, {"measurement": "H&E histology of grafts", "setting": "rat lung grafts", "value": "swollen alveolar walls, congestion in the blood vessels, and fluid leaks into the alveolar space"}, {"measurement": "post-transplant lung function (P/F ratio)", "setting": "rat lung grafts", "value": "significantly lower"}, {"measurement": "pulmonary vascular resistance (PVR) during EVLP", "setting": "rat lungs; 4-hour EVLP", "value": "increased"}, {"measurement": "dynamic lung compliance (Cdyn) during EVLP", "setting": "rat lungs; 4-hour EVLP, vs control", "value": "neither heparin nor SF4 altered Cdyn"}, {"measurement": "Evans blue dye (EBD) accumulation in lung tissue", "setting": "rat lungs; after 4-hours EVLP", "value": "significantly more EBD had accumulated"}, {"measurement": "wet-to-dry (W/D) ratio", "setting": "rat lungs; after 4 hours of EVLP", "value": "further augmented"}, {"measurement": "syndecan-1 concentration in EVLP perfusate", "setting": "[2]", "value": "markedly increased; also recorded: significantly higher"}, {"measurement": "HPSE activity in the lungs", "setting": "HPSE", "value": "partially inhibited; also recorded: not sufficiently nor significantly inhibited"}]}]}
